These results are taken from article PMC8810914 (Biochemistry, 2021).

The Kd is the equilibrium constant for the complex coming apart.

One experiment addresses M2 WT. The following applies: only binding curve recorded; upper limit of the true Kd; cited from earlier work.
The next experiment has as its target Udorn M2 WT (Influenza A virus, UniProt P0DOF5). Put plainly: two-electrode voltage clamp electrophysiological. Format: binding, influenza A virus A/Udorn/72. The conditions noted are these: amantadine vs rimantadine.

Udorn M2 WT, sequence (P0DOF5 whole entry, looked up): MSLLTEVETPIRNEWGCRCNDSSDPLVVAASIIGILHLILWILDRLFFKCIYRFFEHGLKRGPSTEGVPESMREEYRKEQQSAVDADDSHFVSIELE

Turning to `CC(N)C12CC3CC(CC(C3)C1)C2` (racemic) [rimantadine (racemic), rimantadine], the Kd on M2 WT is 7 µM. For the compound `C[C@H](N)C12CC3CC(CC(C3)C1)C2` [(S)-rimantadine], at M2 WT, the Kd was 3.9 µM. On to `NC12CC3CC(CC(C3)C1)C2` [amantadine], for which the “binding affinity to Udorn M2 WT weaker than rimantadine” value at Udorn M2 WT is reported as “about 10 fold”.
